Measurements published in patent US10342818B2, “Dual-action compounds targeting adenosine A2A receptor and adenosine transporter for prevention and treatment of neurodegenerative diseases” (Academia Sinica, priority 2009, dated 2019).
Entries after “also recorded” stand apart in the source; their conditions may differ. Read-outs that look alike come from different tables or passages of the source.

Tests used:
[1] = target: T1, equilibrative nucleoside transporter 1 (ENT1) (Cavia porcellus, UniProt H0V4R7); test: Radioligand binding assay for adenosine transporters (3H-NBTI, cerebral cortex membranes); design: species or system guinea pig; conditions: for Ki: guinea pig equilibrium transporter 1, cerebral cortex membranes, 3H-NBTI 0.5 nM; for Binding with / activity against ENT1, result in words: radioligand binding
T1 construct: Membrane fractions collected from the cerebral cortex of Duncan Hartley derived guinea pigs; tissue MDS Pharma Services Taiwan (assay provider); host or cells: guinea pig cerebral cortex membranes
T1 sequence (H0V4R7 1-461): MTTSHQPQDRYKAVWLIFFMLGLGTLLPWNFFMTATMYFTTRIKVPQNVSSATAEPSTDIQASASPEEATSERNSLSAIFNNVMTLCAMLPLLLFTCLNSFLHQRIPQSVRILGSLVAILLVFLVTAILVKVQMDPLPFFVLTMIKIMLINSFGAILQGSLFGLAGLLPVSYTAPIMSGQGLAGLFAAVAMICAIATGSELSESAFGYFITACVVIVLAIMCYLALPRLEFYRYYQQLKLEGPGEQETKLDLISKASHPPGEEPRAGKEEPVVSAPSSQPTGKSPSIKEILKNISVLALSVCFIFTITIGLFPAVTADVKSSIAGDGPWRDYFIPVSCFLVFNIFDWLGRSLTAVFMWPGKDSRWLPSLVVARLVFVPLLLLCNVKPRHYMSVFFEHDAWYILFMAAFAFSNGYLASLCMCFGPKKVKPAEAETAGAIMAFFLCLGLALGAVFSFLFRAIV
Excerpt: The pharmacological properties of the prepared adenosine analogues were characterized by MDS Pharma Services using radioligand binding assays. […] Except for 11 and 15, the adenosine derivatives having modification at the C-5′ position appeared to deteriorate their binding with A2AR, though they still maintained high affinity with ENT1.

[2] = target: human A2A receptor (Homo sapiens, UniProt P29274); test: Radioligand binding assay of the A2A receptor (3H-CGS21680, MDS Pharma Services); conditions: for Binding with A2AR, result in words: radioligand binding
Sequence of human A2A receptor (P29274 whole entry): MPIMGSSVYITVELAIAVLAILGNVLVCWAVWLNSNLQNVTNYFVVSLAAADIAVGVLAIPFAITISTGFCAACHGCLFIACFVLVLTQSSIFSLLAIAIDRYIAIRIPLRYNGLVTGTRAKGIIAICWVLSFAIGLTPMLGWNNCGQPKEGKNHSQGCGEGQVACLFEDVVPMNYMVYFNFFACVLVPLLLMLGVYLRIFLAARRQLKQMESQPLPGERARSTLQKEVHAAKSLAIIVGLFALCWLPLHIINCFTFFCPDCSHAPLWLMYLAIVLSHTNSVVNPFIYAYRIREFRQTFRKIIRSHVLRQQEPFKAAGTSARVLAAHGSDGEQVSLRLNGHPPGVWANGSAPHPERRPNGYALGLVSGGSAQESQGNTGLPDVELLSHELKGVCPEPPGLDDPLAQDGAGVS
Description: Radioligand binding assays were performed by MDS Pharma Services Taiwan (Taipei, Taiwan) using standard binding protocols. For the binding assay of the A2A receptor,^46 membrane proteins collected from HEK293 cells overexpressing the human A2A receptor were incubated in reaction buffer [50 mM Tris-HCl (pH 7.4), 10 mM MgCl2, 1 mM EDTA, and 2 U/mL adenosine deaminase] containing ^3H-CGS21680 (50 nM) for 90 min at 25° C. Nonspecific binding was assessed in the presence of 50 μM adenosine-5′-N-ethylcarboxamide (NECA).

[3] = tested on: PC12 cells; test: MTT metabolism assay, rescue of serum-deprived PC12 cells from apoptosis; assay type: cell-based; conditions: 0.01 μM, 24 h
Excerpt: Cell viability was monitored by the MTT assay, and is expressed as a percentage of the MTT activity measured in the serum-containing group. […] Collectively, the dual function of these compounds in activation of adenosine receptor and in inhibition of adenosine transporter might synergistically increase the effective concentration of adenosine, especially when these two proteins are in proximity.
PC12 cells purchased from ATCC (Manassas, Va., USA) were maintained in Dulbecco's modified Eagle's medium (DMEM) supplemented with 10% horse serum and 5% fetal bovine serum and incubated in a CO2 incubator (5%) at 37° C. Survival was assessed by the 3-(4,5-dimethylthiazol-2-yl)-2,5-diphenyltetrazolium bromide (MTT) metabolism assay as described elsewhere.^49,50 In brief, cells grown on 150-mm plates were washed three times with PBS and resuspended in DMEM. Suspended cells (1×10^4 cells) were plated on 96-well plates and treated with or without the indicated reagent. After incubation for 24 h, MTT (0.5 mg/mL) was added to the medium and incubated for 3 h. After discarding the medium, DMSO (100 μL) was then applied to the well to dissolve the formazan crystals derived from the mitochondrial cleavage of the tetrazolium ring by live cells. The absorbance at 570/630 nm in each well was measured on a micro-enzyme-linked immunosorbent assay (ELISA) reader.

[4] = tested on: PC12 cells; conditions: compound isolated from Gastrodia elata, earlier report; cited from earlier work

| Ki [1] [nM] | Ki [2] [nM] | SMILES | also measured |
| --- | --- | --- | --- |
| > 10000 | 20300 | CCNC(=O)C1OC(n2cnc3c(NCc4ccc(O)cc4)ncnc32)C(O)C1O (centres unmarked) [Compound 15, 3,4-Dihydroxy-5-[6-(4-hydroxybenzylamino)-purin-9-yl]-tetrahydrofuran-2-carboxylic Acid Ethylamide] | melting point: 179.7 to 180.5 °C |
| 1170 | > 100000 | COc1ccc(CNc2ncnc3c2ncn3C2OC(c3nnn[nH]3)C(O)C2O)cc1 (centres unmarked) [Compound 16, 2-[6-(4-Methoxybenzylamino)-purin-9-yl]-5-(1H-tetrazol-5-yl)-tetrahydrofuran-3,4-diol] | melting point: 210 to 210.6 °C |
|  |  | OC[C@H]1O[C@@H](n2cnc3c(NCCc4c[nH]c5ccccc45)ncnc32)[C@H](O)[C@@H]1O [Compound 6, N^6-(3-Indolylethyl)adenosine] | Binding with / activity against ENT1, result in words [1]: sub-micromolar range; Binding with A2AR, result in words [2]: low micromolar; Binding affinity to A2AR of compound 6 relative to compound 11 ([2]; ratio of Ki values): 10 fold; Rescue of PC12 cells from apoptosis evoked by serum withdrawal (cell viability, MTT) [3]: rescued PC12 cells from the apoptosis evoked by serum withdrawal equally as well as 1 |
| 581 |  | COc1ccc(CNc2ncnc3c2ncn3[C@@H]2O[C@H](CN=[N+]=[N-])[C@H](O)C2O)cc1 (some centres unmarked) [Compound 8] |  |
| 318 | 30100 | COc1ccc(CNc2ncnc3c2ncn3[C@@H]2O[C@H](CO)[C@@H](O)[C@H]2O)cc1 [Compound 3, N^6-(4-methoxybenzyl)adenosine] |  |
| 1430 | > 100000 | COc1ccc(CNc2ncnc3c2ncn3[C@@H]2O[C@H](CNC(C)=O)[C@@H](O)[C@H]2O)cc1 [Compound 9, 5′-Acetamido-5′-deoxy-N^6-(4-methoxybenzyl)adenosine] | melting point: 121.1 to 121.6 °C |
| 511 | > 100000 | CCCCc1cn(C[C@H]2O[C@@H](n3cnc4c(NCc5ccc(OC)cc5)ncnc43)[C@H](O)[C@@H]2O)nn1 [Compound 12] |  |
|  |  | CCNC(=O)C1OC(n2cnc3c(N)nc(NCCc4ccc(CCC(=O)O)cc4)nc32)C(O)C1O (centres unmarked) [CGS, 6-amino-9-(5-ethylcarbamoyl-3,4-dihydroxy-oxolan-2-yl)-2-{2-[4-(2-carboxyethyl)phenyl]ethylamino}purine, reference compound] | Binding with / activity against ENT1, result in words [1]: lack the activity against ENT1; also recorded: no inhibitory activity toward hENT1 |
| 960 | 41800 | COc1ccc(CNc2ncnc3c2ncn3[C@@H]2O[C@H](Cn3cc(C)nn3)[C@@H](O)[C@H]2O)cc1 [Compound 11, 5′-Deoxy-5′-(4-methyl-1,2,3-triazol-1-yl)-N^6-(4-methoxybenzyl)adenosine] | melting point: 183 to 183.2 °C |
| 0.29 | > 10000 | O=[N+]([O-])c1ccc(CSc2ncnc3c2ncn3[C@@H]2O[C@H](CO)[C@@H](O)[C@H]2O)cc1 [NBTI, S-(4-nitrobenzyl)-6-thioinosine, reference compound] | Binding with A2AR, result in words [2]: no binding ability with A2AR |
| 52 | > 100000 | CCCCCCc1cn(C[C@H]2O[C@@H](n3cnc4c(NCc5ccc(OC)cc5)ncnc43)[C@H](O)[C@@H]2O)nn1 [Compound 13] |  |
| 200 | > 100000 | COc1ccc(CNc2ncnc3c2ncn3[C@@H]2O[C@H](CNS(=O)(=O)c3ccc(C)cc3)[C@@H](O)[C@H]2O)cc1 [Compound 10] |  |
| 116 | > 100000 | COc1ccc(CNc2ncnc3c2ncn3[C@@H]2O[C@H](Cn3cc(Cc4ccccc4)nn3)[C@@H](O)[C@H]2O)cc1 [Compound 14] |  |
| 538 |  | OC[C@H]1O[C@@H](n2cnc3c(NCc4ccc(O)cc4)ncnc32)[C@H](O)[C@@H]1O [Compound 1, N^6-(4-Hydroxybenzyl)adenosine] | Binding with / activity against ENT1, result in words [1]: sub-micromolar range; Binding with A2AR, result in words [2]: low micromolar; Ki ([2]; read-out: Ki A2A-R, human adenosine A2A receptor, HEK293 membranes, 3H-CGS21680 50 nM): 2620 nM; Rescue of PC12 cells from apoptosis evoked by serum withdrawal (cell viability, MTT) [3]: rescued PC12 cells from the apoptosis evoked by serum withdrawal; Prevention of apoptosis of serum-deprived PC12 cells (previously reported) [4]: prevented apoptosis of serum-deprived PC12 cells |
| > 100000 | > 100000 | CC1(C)O[C@@H]2[C@H](O1)[C@@H](CO)O[C@H]2n1cnc2c(NCc3ccc(O)cc3)ncnc21 [Compound 1-acetonide, 1-acetonide] |  |
| 2980 | > 100000 | COc1ccc(CNc2ncnc3c2ncn3[C@@H]2O[C@H](CCl)[C@@H](O)[C@H]2O)cc1 [Compound 7] |  |
